Results on 14 molecules are retold here after patent publication US20090105305A1, “Therapeutic Agents - 550” (AstraZeneca AB, priority 2006, published 2009).

The target in the experiment is T1, human Fatty Acid Synthase (Homo sapiens, UniProt P49327).
T1 construct: made in house
In words: Human FAS enzyme assay (decrease in NADPH fluorescence). It counts as biochemical. The method in brief: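 In-house human FAS (0.4 μg) was preincubated 15 min at RT with compound and NADPH (added at 166.6 μM) in 0.1 M Tris pH 7.5, 1 mM glutathione, 0.05% BSA. Malonyl-/acetyl-CoA (500/150 μM in substrate mix) was then added for 60 min. Readout was NADPH fluorescence loss (ex 340/em 460) over a time-zero read, with IC50 from a sigmoid fit.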

The mark [1] stands for this setting: % inhibition at a concentration of 100 micromolar.

T1 sequence (P49327 whole entry): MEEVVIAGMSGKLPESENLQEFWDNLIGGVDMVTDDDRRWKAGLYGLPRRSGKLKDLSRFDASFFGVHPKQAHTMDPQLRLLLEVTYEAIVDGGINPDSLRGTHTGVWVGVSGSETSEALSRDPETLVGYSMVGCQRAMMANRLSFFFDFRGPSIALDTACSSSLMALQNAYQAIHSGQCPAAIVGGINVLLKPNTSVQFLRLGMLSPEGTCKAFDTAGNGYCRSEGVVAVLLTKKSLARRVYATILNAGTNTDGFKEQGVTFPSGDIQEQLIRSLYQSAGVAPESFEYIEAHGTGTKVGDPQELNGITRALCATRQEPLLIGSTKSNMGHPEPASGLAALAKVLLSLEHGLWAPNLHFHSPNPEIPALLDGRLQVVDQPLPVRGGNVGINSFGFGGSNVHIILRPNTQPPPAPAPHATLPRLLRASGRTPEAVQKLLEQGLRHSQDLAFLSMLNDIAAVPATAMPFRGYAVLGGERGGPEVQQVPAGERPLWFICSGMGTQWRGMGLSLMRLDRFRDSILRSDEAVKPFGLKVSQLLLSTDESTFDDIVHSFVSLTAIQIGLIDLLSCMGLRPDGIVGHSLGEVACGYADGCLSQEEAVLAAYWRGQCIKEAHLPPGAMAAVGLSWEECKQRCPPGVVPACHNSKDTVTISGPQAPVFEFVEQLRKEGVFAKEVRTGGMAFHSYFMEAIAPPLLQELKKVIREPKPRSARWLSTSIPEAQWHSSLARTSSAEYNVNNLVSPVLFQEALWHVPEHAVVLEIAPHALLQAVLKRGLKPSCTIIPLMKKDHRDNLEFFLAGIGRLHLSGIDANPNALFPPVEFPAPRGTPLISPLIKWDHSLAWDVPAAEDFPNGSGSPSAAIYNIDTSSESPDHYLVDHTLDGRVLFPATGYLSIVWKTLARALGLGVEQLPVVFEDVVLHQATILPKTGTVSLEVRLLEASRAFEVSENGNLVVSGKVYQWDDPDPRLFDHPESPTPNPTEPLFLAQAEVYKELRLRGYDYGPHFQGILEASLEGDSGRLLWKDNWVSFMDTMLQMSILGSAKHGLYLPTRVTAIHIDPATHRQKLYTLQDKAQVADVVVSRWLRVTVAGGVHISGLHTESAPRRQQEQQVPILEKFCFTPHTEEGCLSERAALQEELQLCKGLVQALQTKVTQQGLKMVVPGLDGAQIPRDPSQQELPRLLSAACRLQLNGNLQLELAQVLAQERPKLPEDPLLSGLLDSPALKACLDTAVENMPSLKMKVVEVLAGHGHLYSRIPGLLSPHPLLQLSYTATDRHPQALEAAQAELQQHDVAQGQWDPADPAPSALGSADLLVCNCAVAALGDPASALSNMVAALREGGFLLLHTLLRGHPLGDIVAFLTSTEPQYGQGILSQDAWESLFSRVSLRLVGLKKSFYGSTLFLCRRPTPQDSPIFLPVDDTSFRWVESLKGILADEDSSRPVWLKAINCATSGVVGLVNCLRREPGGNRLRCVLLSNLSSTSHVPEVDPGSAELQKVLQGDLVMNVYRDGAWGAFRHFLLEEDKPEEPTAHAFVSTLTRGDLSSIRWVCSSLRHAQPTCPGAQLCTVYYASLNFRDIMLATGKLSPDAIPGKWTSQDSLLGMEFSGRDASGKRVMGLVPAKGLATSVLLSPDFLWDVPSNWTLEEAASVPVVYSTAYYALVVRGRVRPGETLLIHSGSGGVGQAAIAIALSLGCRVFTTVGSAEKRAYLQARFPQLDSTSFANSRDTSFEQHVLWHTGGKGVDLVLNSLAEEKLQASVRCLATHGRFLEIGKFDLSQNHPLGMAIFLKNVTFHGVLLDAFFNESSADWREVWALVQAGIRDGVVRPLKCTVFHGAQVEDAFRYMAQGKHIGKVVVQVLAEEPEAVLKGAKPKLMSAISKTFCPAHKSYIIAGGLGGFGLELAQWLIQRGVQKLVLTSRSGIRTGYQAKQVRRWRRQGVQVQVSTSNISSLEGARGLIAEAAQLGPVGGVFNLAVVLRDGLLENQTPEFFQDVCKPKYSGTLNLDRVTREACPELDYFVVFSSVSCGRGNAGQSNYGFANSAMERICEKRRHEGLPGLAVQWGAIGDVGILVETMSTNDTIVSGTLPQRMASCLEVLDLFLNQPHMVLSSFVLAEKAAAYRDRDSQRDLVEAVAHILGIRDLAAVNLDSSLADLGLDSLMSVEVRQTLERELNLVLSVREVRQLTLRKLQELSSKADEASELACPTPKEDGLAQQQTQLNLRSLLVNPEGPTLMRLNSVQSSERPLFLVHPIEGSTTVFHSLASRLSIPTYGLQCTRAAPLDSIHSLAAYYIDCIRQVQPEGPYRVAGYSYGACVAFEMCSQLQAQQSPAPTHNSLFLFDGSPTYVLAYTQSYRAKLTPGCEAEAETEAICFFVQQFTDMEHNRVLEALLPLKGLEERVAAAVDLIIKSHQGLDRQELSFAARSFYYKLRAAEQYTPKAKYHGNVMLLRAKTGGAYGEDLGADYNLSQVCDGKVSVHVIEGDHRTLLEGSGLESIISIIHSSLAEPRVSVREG

Consider `CCC1(CS(=O)(=O)Nc2cc(C(=O)N3CCC(c4ccc(C#N)cc4)CC3)ccc2C)NC(=O)NC1=O` (centres unmarked) [Example 148, N-[5-[4-(4-cyanophenyl)piperidine-1-carbonyl]-2-methyl-phenyl]-1-(4-ethyl-2,5-dioxo-imidazolidin-4-yl)methanesulfonamide], for which at 100 µM the inhibition under setting [1] was 100%.
The same measure, in the same setting: as for `Cc1ccc(C(=O)N2CCC(c3ccc(OC(F)(F)F)cc3)CC2)cc1NS(C)(=O)=O` [Example 180, N-[2-methyl-5-[4-[4-(trifluoromethoxy)phenyl]piperidine-1-carbonyl]phenyl]methanesulfonamide], the figure is 96%; as for `CCS(=O)(=O)NCc1ccc(C2CCN(C(=O)c3ccc(C)c(NS(C)(=O)=O)c3)CC2)cc1` [Example 227, N-[[4-[1-(3-methanesulfonamido-4-methylbenzoyl)piperidin-4-yl]phenyl]methyl]ethanesulfonamide], 87.4%.
`COC(=O)CS(=O)(=O)Nc1ccc(C)c(C(=O)N2CCC(c3ccc(C#N)cc3)CC2)c1` [Example 38, methyl 2-[[3-[4-(4-cyanophenyl)piperidine-1-carbonyl]-4-methyl-phenyl]sulfamoyl]acetate] gave an inhibition at 100 µM under setting [1] of 83%.
For `COC(=O)CS(=O)(=O)Nc1cc(C(=O)N2CCC(c3ccc(C#N)cc3)CC2)ccc1C` [Example 13, methyl 2-[[5-[4-(4-cyanophenyl)piperidine-1-carbonyl]-2-methyl-phenyl]sulfamoyl]acetate], the inhibition at 100 µM under setting [1] was 76%.
Molecule `COc1ccc(C(=O)N2CCC(c3ccc(C#N)cc3)CC2)cc1NS(=O)(=O)Cc1ccccc1` [Example 89, N-[5-[4-(4-cyanophenyl)piperidine-1-carbonyl]-2-methoxy-phenyl]-1-phenyl-methanesulfonamide] showed an inhibition at 100 µM under setting [1] of 78%.
Turning to `COC(=O)c1ccc(C2CCN(C(=O)c3ccc(C)c(NS(C)(=O)=O)c3)CC2)cc1` [Methyl 4-[1-(3-methanesulfonamido-4-methylbenzoyl)piperidin-4-yl]benzoate], the “IC50s in the range of about 0.001 μM to about 30 μM” value (compounds excluded from the claims by proviso) is “do not have IC50s in the range of about 0.001 μM to about 30 μM”.
`CCCCS(=O)(=O)Nc1ccc(C)c(C(=O)N2CCC(c3ccc(C#N)cc3)CC2)c1` [Example 37, N-[3-[4-(4-cyanophenyl)piperidine-1-carbonyl]-4-methyl-phenyl]butane-1-sulfonamide] had an inhibition at 100 µM under setting [1] of 91%.
On the same count and under the same terms, next, `Cc1ccc(C(=O)N2CCC(c3ccc(C#N)cc3)CC2)cc1NS(=O)(=O)Cc1ccccc1` [Example 4, N-[5-[4-(4-cyanophenyl)piperidine-1-carbonyl]-2-methyl-phenyl]-1-phenyl-methanesulfonamide]: 81%; `Cc1ccc(NS(=O)(=O)CC2CCCCC2)cc1C(=O)N1CCC(c2ccc(C#N)cc2)CC1` [Example 41, N-[3-[4-(4-cyanophenyl)piperidine-1-carbonyl]-4-methyl-phenyl]-1-cyclohexyl-methanesulfonamide]: 96%.
The same measure, in the same setting: as for `Cc1ccc(C(=O)N2CCC(c3ccc(C#N)cc3)CC2)cc1NS(=O)(=O)C(C)C` [Example 128, N-[5-[4-(4-cyanophenyl)piperidine-1-carbonyl]-2-methyl-phenyl]propane-2-sulfonamide], the figure is 96%; as for `Cc1ccc(C(=O)N2CCC(c3ccc(C#N)cc3)CC2)cc1NS(=O)(=O)c1ccccc1C(N)=O` [Example 113, 2-[[5-[4-(4-cyanophenyl)piperidine-1-carbonyl]-2-methyl-phenyl]sulfamoyl]benzamide], 77%; as for `Cc1ccc(C(=O)N2CCC(c3ccc(C#N)cc3)CC2)cc1NS(=O)(=O)CCCN(C)C` [Example 74, N-[5-[4-(4-cyanophenyl)piperidine-1-carbonyl]-2-methyl-phenyl]-3-dimethylamino-propane-1-sulfonamide], 95%.
For the molecule `Cc1ccc(C(=O)N2CCC(c3ccc(CCCC(=O)O)cc3)CC2)cc1NS(=O)(=O)C1CCCCC1` [Example 246, 4-[4-[[13-(cyclohexylsulfonylamino)-4-methylbenzoyl]piperidin-4-yl]phenyl]butanoic acid], under setting [1], the Inhib % was 92.8%.
